The subject of assay [1] is Bacillus subtilis ATCC 6633. Nature of the assay: Disc agar diffusion assay. It counts as cell-based. As to the method:
(§1) As a further test of an embodiment, the antibacterial properties of EIPE-1 were tested across a large panel of organisms. EIPE-1 was dissolved in DMSO, impregnated onto sterile filter paper disks, and DMSO served as the untreated control according to the following procedure: • 1. Prepare a 2.5 μg/μL stock solution of EIPE-1 by micro pipetting 200 μL of DMSO into 2.0 mL Eppendorf Tube containing 0.5 mg of EIPE-1. Dissolve with vortex agitation and store at 4° C. • 2. Use forceps to pick up sterile 6.0 mm blank paper disks. Make sure to touch only one side of disc as lightly as possible. […] Lean the impregnated disc up against the side of a small sterile glass petri dish. Follow same procedure for DMSO control. Allow disks several hours to dry under flowing sterile air. • 3. Inoculate starter cultures using cells from working culture cultivated on Mueller-Hinton Agar (MHA; Difco Laboratories). Starters consist of ˜20 mL of Mueller-Hinton Broth (MHB; Difco Laboratories) in 125-mL culture flasks. Incubate starter cultures in an Excella E24 Benchtop Incubator Shaker (New Brunswick Scientific Co., Inc., Edison, N.J., USA) at 37° C. and 180 rpm for 15-18 hours. • 4. Pour at least 5.0 mL of NMB into 18-mL Kimax tubes. Use a Pasteur pipette to deliver enough of the starter culture cell suspension to reach an optical density (OD620) of 0.025 (Spectronic™ 20 optical spectrophotometer; Thermo Electron Corp., Madison, Wis., USA). Ensure that both transmittance and absorbance are set to 0.0 using a blank NMB sample. Incubate in rotary shaking incubator at 37° C. and 180 rpm until optical density reaches 0.1. • 5. Deliver 100 μL of test culture to the middle of a small 100 mm×15 mm Petri dish containing ˜⅛ in thickness of MHA. • 6. Saturate a sterile cotton swab with MHB by dipping the cotton swab into KIMAX® tube with MHB and then touch the swab to the north, south, east, and west side of the KIMAX® tube to remove excess broth. • 7. Streak the inoculum as follows: • a. Start in the center and make four straight lines to the 12, 3, 6, and 9 o'clock position on the petri dish. • b. Start at the 12 o'clock position and streak side to side all the way down the plate to the 6 o'clock position. […] Rotate the petri dish 90° and complete the same side to side streak all the way down the petri dish. • d. Complete step c. twice more. • e. Rotate petri dish 45° and complete the side-to-side streak. • f. Rotate petri dish 90° and complete the side-to-side streak. • 8. Use sterile forceps to transfer the DMSO control paper disc onto the agar surface and pat the paper disc down to ensure flush contact. Use the same technique to deliver EIPE-1 paper disc. • 9. Place petri dish at 4° C. for 1.0 hour to allow EIPE-1 diffusion in the absence of growth. • 10. Incubate petri dish at 37° C. for 18 hours. • 11. Observe for zones of growth inhibition surrounding disks. Measure diameter with electronic caliper and subtract 6.0-mm disc diameter. Results • a) Each organism was initially tested once to serve as a screen.

The test system of assay [2] is Staphylococcus aureus ATCC 25923. Description: Disc agar diffusion assay. It counts as cell-based. As to the method:
as §1
For orientation: A growth-free zone around the sample is the usual read-out of agar diffusion tests.

Setting [3] is: Group 3: Gram-positive organisms.

On to `COC(=O)c1cc2c(C#Cc3ccc(OCCC[N+](C)(C)C)cc3)c(OC)c(OC)c(C#Cc3ccc(OCCC[N+](C)(C)C)cc3)c2n1C` [EIPE-1, 3,3′-((((5,6-dimethoxy-2-(methoxycarbonyl)-1-methyl-1H-indole-4,7-diyl)bis(ethyne-2,1-diyl))bis(4,1-phenylene))bis(oxy))bis(N,N,N-trimethylpropan-1-aminium) iodide], for which the “Inhibition Zone Diameter (mm) ± SD” value in assay [1] (B. subtilis ATCC 6633, 25 μg per disk, zone minus disk diameter (6.0mm)) is reported as 1.1 ± 0.2 mm; in assay [1] (B. subtilis ATCC 6633, 50 μg per disk, zone minus disk diameter (6.0mm)), 3.3 ± 0.1 mm; in assay [2] (S. aureus ATCC 25923, 25 μg per disk, zone minus disk diameter (6.0mm)), 1.6 ± 0.1 mm; in assay [2] (S. aureus ATCC 25923, 50 μg per disk, zone minus disk diameter (6.0mm)) it was 3.1 ± 0.2 mm. The zone of inhibition at 25 µg/disc in assay [1] (Bacillus subtilis, ATCC6633, B. subtilis ATCC 6633, 25 μg per disk, zone minus disk diameter (6.0mm), read-out: Inhibition Zone Diameter (mm) ± SD) was found to be 1.1 mm; in assay [2] (Staphylococcus aureus, ATCC25923, S. aureus ATCC 25923, 25 μg per disk, zone minus disk diameter (6.0mm), read-out: Inhibition Zone Diameter (mm) ± SD), 1.6 mm. Further, the zone of inhibition at 50 µg/disc amounted to 3.3 mm in assay [1] (Bacillus subtilis, ATCC6633, B. subtilis ATCC 6633, 50 μg per disk, zone minus disk diameter (6.0mm), read-out: Inhibition Zone Diameter (mm) ± SD) and 3.1 mm in assay [2] (Staphylococcus aureus, ATCC25923, S. aureus ATCC 25923, 50 μg per disk, zone minus disk diameter (6.0mm), read-out: Inhibition Zone Diameter (mm) ± SD). The zone of inhibition at 250 µg/disc in assay [1] (Bacillus subtilis, ATCC6633, B. subtilis ATCC 6633, 250 μg per disk, zone minus disk diameter (6.0mm), read-out: Inhibition Zone Diameter (mm) ± SD) came to 1.8 ± 0.3 mm; in assay [2] (Staphylococcus aureus, ATCC25923, S. aureus ATCC 25923, 250 μg per disk, zone minus disk diameter (6.0mm), read-out: Inhibition Zone Diameter (mm) ± SD), 2.3 ± 0.2 mm. Moreover, the “susceptibility group in disc diffusion screen” value in assay [1] (setting [3]) and in assay [2] (setting [3]) was “susceptible” in each case.

Source of the values: patent US11730717B1, “Melanin-inspired antimicrobial” (The Board of Regents for the Oklahoma Agricultural and …, priority 2020, dated 2023).
